This passage reports speed of sound and mass density results from the NIST ThermoML archive (doi:10.1021/je100472t).

The conditions of the data set: 101.33 kPa, Liquid; for speed of sound: Pulse-echo method; for mass density: Vibrating tube method.

SMILES strings stand for the structures. ± gives the expanded uncertainty stated by the source.

For the compound `CNc1ccccc1` [N-methylaniline], the speed of sound (in general, the propagation velocity of pressure waves in the medium) reads like this: (293.15 K) 1582.5 ± 2.1 m/s; (298.15 K) 1563.9 ± 2.1 m/s; (303.15 K) 1546 ± 2.1 m/s. For the same compound, the mass density (as a rule, the mass of a sample divided by its volume) was found to be 986.295 ± 0.82 kg/m3 (293.15 K), 982.278 ± 0.82 kg/m3 (298.15 K) and 978.284 ± 0.81 kg/m3 (303.15 K).

As for `Nc1ccccc1` [aniline], the speed of sound (293.15 K) came out at 1657 ± 0.94 m/s, the speed of sound (298.15 K) is reported as 1637.8 ± 0.9 m/s and the speed of sound (303.15 K) is 1619.3 ± 0.9 m/s. Further, the mass density by setting is: (293.15 K) 1021.84 ± 0.092 kg/m3; (298.15 K) 1017.51 ± 0.09 kg/m3; (303.15 K) 1013.23 ± 0.088 kg/m3.

As for `CCC(C)=O` [butanone], the speed of sound reads like this: (293.15 K) 1212 ± 0.8 m/s; (298.15 K) 1190.8 ± 0.8 m/s; (303.15 K) 1170.6 ± 0.8 m/s. The mass density (293.15 K) is recorded as 805.08 ± 0.14 kg/m3, the mass density (298.15 K) came to 799.861 ± 0.14 kg/m3 and the mass density (303.15 K) is on record as 794.636 ± 0.14 kg/m3.

Regarding `c1ccncc1` [pyridine], the speed of sound (293.15 K) stood at 1436.6 ± 0.9 m/s, the speed of sound (298.15 K) was found to be 1416.2 ± 0.9 m/s and the speed of sound (303.15 K) was found to be 1396.9 ± 0.9 m/s. The mass density is, setting by setting: (293.15 K) 983.163 ± 0.087 kg/m3; (298.15 K) 978.138 ± 0.089 kg/m3; (303.15 K) 973.148 ± 0.09 kg/m3.
